Test results from ChEMBL document CHEMBL3865842, “Spirobisnaphthalenes and lactones from the seeds of Strychnos angustiflora with potential anti-inflammatory activity” (Bioorg Med Chem Lett, 2016).

Tests used:
BV-2 = test: Inhibition of LPS-induced nitric oxide production in mouse BV2 cells pretreated for 1 hr before LPS stimulation measured after 24 hrs by Griess assay; assay type: functional, cell-based
[1] = Cytotoxicity against human A2780 cells at 10 uM measured after 72 hrs by MTT assay; assay type: toxicity, cell-based; conditions: a2780, 72 h
[2] = Cytotoxicity against human BGC823 cells at 10 uM measured after 72 hrs by MTT assay; assay type: toxicity, cell-based; conditions: bgc-823, 72 h
[3] = Cytotoxicity against human NCI-H1650 cells at 10 uM measured after 72 hrs by MTT assay; assay type: toxicity, cell-based; conditions: nci-h1650, 72 h
[4] = Cytotoxicity against human HepG2 cells at 10 uM measured after 72 hrs by MTT assay; assay type: toxicity, cell-based; conditions: hepg2, 72 h
[5] = Cytotoxicity against human HCT116 cells at 10 uM measured after 72 hrs by MTT assay; assay type: toxicity, cell-based; conditions: hct-116, 72 h

| Compound | IC50 (BV-2) [µM] | Activity [1] | Activity [2] | Activity [3] | Activity [4] | Activity [5] |
| --- | --- | --- | --- | --- | --- | --- |
| Oc1cccc2c1[C@@H](O)[C@H]1O[C@H]1C21Oc2cccc3cccc(c23)O1 | 2.05 | Non-Toxic | Non-Toxic | Non-Toxic | Non-Toxic | Non-Toxic |
| Oc1cccc2c1[C@H](O)[C@@H]1O[C@@H]1C21Oc2cccc3cccc(c23)O1 | 4.85 | Non-Toxic | Non-Toxic | Non-Toxic | Non-Toxic | Non-Toxic |
| COc1cc(O)cc2c1C(=O)O[C@@H](C)CCC[C@H](O)CCC2 | 87.1 | Non-Toxic | Non-Toxic | Non-Toxic | Non-Toxic | Non-Toxic |
| Oc1cccc2c1[C@H](O)C[C@@H](O)C21Oc2cccc3cccc(c23)O1 | 67.6 | Non-Toxic | Non-Toxic | Non-Toxic | Non-Toxic | Non-Toxic |
| O=C1C[C@@H](O)[C@]23Oc4cccc5c4[C@](CC[C@@H]5O)(Oc4ccc(O)c1c42)O3 | > 100 | Non-Toxic | Non-Toxic | Non-Toxic | Non-Toxic | Non-Toxic |
| COc1cc(O)cc2c1C(=O)O[C@@H](C)CCC[C@@H](O)CCC2 | > 100 | Non-Toxic | Non-Toxic | Non-Toxic | Non-Toxic | Non-Toxic |
| Oc1cccc2c1[C@@H](O)[C@H](O)[C@@H](O)C21Oc2cccc3cccc(c23)O1 | > 100 | Non-Toxic | Non-Toxic | Non-Toxic | Non-Toxic | Non-Toxic |
| O=C1CC[C@]23Oc4ccc(O)c5c4[C@](Oc4cccc1c42)(O3)[C@H](O)CC5=O | > 100 | Non-Toxic | Non-Toxic | Non-Toxic | Non-Toxic | Non-Toxic |
| CO[C@H]1c2c(O)cccc2C2(Oc3cccc4cccc(c34)O2)[C@H](O)[C@H]1O | 25.7 | Non-Toxic | Non-Toxic | Non-Toxic | Non-Toxic | Non-Toxic |
| O=C1CC[C@]23Oc4ccc(O)c5c4[C@](Oc4cccc1c42)(O3)[C@@H]1O[C@@H]1[C@@H]5O | 11.7 | Non-Toxic | Non-Toxic | Non-Toxic | Non-Toxic | Non-Toxic |
| COc1cc(/C=C/C(=O)CC(=O)/C=C/c2ccc(O)c(OC)c2)ccc1O [CURCUMIN] | 1.42 | – | – | – | – | – |
| COc1cc(O)cc2c1C(=O)O[C@@H](C)CCCCCCC2 [LASIODIPLODIN] | > 100 | Non-Toxic | Non-Toxic | Non-Toxic | Non-Toxic | Non-Toxic |
| CO[C@@H]1CC(=O)c2cccc3c2[C@@]12Oc1ccc(O)c4c1[C@](O3)(O2)[C@@H]1O[C@@H]1[C@@H]4O [PREUSSOMERIN C] | 1.16 | Non-Toxic | Non-Toxic | Non-Toxic | Non-Toxic | Non-Toxic |
